Columns and labels:
Type in all cases: cell-based
[1] = test system: U2OS cells; assay: PAD anti-proliferation assay, U2OS; details: Homo sapiens, 48 hours, read-out: PAD/U20S IC50
Description: (§1) A549 (ATCC# CCL 185), HeLa (ATCC# CCL 2), HCT116 (ATCC# CCL-247), and H 1299 (ATCC# CRL-5803) cells were maintained in T175 flasks following the ATCC recommended media and handling procedures. Flasks reaching approximately 70% confluency were trypsinized and resuspended in RPMI media (Cell Gro catalog number 10 040 CM) modified to contain 5% FBS, 100 ug/mlPen/Strep (Cell Gro catalog number 30 002 CL), and 0.3 mg/ml L Glutamine (Cell Gro catalog number 25 003 CL). A 20,000 cells/ml solution was made for plating. Cells were plated in black Packard 96 well plates by placing 100 μl per well (2,000 cells per well).
(§2) Compounds and additional media were added 24′ hours after cell plating. A compound master plate was created with concentrations 500 times greater than the final concentration added to the cells. All compound testing was done in duplicate using 3 fold dilutions starting with 10 mM. All outside wells (and 4 internal wells) were DMSO controls. Taxol and at least one additional control were run on all plates. Three microliters of the compound master plate were added to deep well blocks containing 750 μl of RPMI media. One hundred microliters were transferred from the compound/media deep well blocks to the plated cells resulting in a 500 fold dilution of the compounds. Cells were grown at 37° C., 5% CO2 for 48 hours.
(§3) Cells to be analyzed by photography were fixed and stained. One hundred microliters of media were removed and 100 μl of 2% paraformaldehyde was added to each well. Plates were left on the benchtop for 45 minutes. A staining solution containing 1.55 μl of 1 mg/ml DAPI added to 18.75 ml PBS was warmed for 15 minutes at 37° C. The cells were aspirated prior to washing with 100 μl of PBS. Seventy microliters of PBS were aspirated and 170 μl of the DAPI solution were added to each well of fixed cells. Plates were left at room temperature for one hour then aspirated and washed twice with 100 μl of PBS. The stained cells were left at 4° C. for a minimum of 16 hours before photographic analysis with Array Scan II (Cellomics). Analysis of the photographic images to determine numbers of live cells (proliferation), apoptotic cells and dead cells, were according to the methods described in U.S. Provisional Patent Application Ser. No. 60/406,714, which incorporated herein in its entirety.
Some cell plates were treated with Promega Cell titer Aqueous 1 kit (Promega—VWR catalog number G3580). In this case, 48 hours after the test compound were added, 100 μl of media were removed and 20 μl of cell titer reagent were added to all wells. Plates were incubated at 37° C. for 45 minutes prior to absorbance reads on the Wallac plate reader at 490 nm for 0.1 sec/well. Similar experiments can be carried out using cell lines U2OS and DLD-1.

[2] = test system: H1299 cells; assay: PAD anti-proliferation assay, H1299; details: Homo sapiens, NCI-H1299, 48 hours
Description: as §1, §2, §3

[3] = test system: p53 reporter system in p53 wild-type U2OS cell line; assay: p53-dependent transcription reporter assay, U20SRE; details: p53 +ve cell type; maximal fold induction over DMSO control
Description: (§4) Stable lines of U2OS (osteosarcoma; Wild-type p53 positive), HCT116 (colorectal carcinoma; Wild-type p53 positive) and H1299 (lung non-small cell carcinoma; p53 null) carrying p53-dependent transcriptional regulatory element linked to a Luciferase reporter gene and H1299 carrying a 5′-regulatory region of GADD45 linked to Luciferase were used.
Day 1: Cells were re-plated into 96-well plates at suitable densities to make 50-60% confluence on Day 2. The plating densities are as follows: 7.5×10^3 cells/well (or 2.5×10^4 cells/cm^2) for U2OS; 1.5×10^4 cells/well (or 5.0×10^4 cells/cm^2) for HCT116; and 1.0×10^4 cells/well (or 3.3×10^4 cells/cm^2) for H1299.
(§5) Day 2: The compounds or control drugs were diluted in dimethyl sulfoxide (DMSO) and added to the wells to create 6-points/2-fold serial dilution (20, 10, 5, 2.5, 1.25, 0.625 and 0 μM) for each compound. The DMSO concentration was adjusted to 0.2% in all wells.
(§6) Day 3: Twenty to 24 hours after compound addition, cells were twice washed with PBS and lysed with Glo-lysis buffer (100 μl/well, Promega; Cat#E2661). Plates were subjected to gentle agitation on a table-top shaker for 5 minutes at room temperature. Fifty μl of lysate was transferred to an assay plate to test for luciferase activity and mixed with 2× assay buffer (Promega; Cat# E1483). The reaction mixture was left at room temperature for 2 minutes and then luminescence was measure by a luminometer (Victor™, 1420 Multilabel Counter, Wallac).
(§7) Data analysis was done on Excel software (Microsoft). Values in Table 4 represent maximal fold induction over negative control (DMSO only) and are the mean of at least duplicate experiments.
U20SRE is a p53 wild-type U2OS cell line containing p53 reporter system. If the compound acts against MDM2, p53 activity increases.

[4] = test system: p53 reporter system in p53 wild-type A549 cell line; assay: p53-dependent transcription reporter assay, A549RE; details: p53 +ve cell type; maximal fold induction over DMSO control
Description: as §4, §5, §6, §7
A549RE is a p53 wild-type A549 cell line containing p53 reporter system. If the compound acts against MDM2, p53 activity increases.

IC50 [1]	IC50 [2]	Fold Induction of p53 activity, U20SRE [3]	Fold Induction of p53 activity, A549RE [4]	SMILES
1 to 20 µM	1 to 20 µM	b (b means greater than 2)	a (a means 2 or less)	COc1cccc(-c2csc(N(Cc3ccc(C(=O)N4CCNCC4)cc3)Cc3cccc(OC(F)(F)F)c3)n2)c1 [compound 351]
1 to 20 µM	1 to 20 µM	b (b means greater than 2)	a (a means 2 or less)	COc1cccc(-c2csc(N(CCOc3ccccc3)Cc3ccc(C(=O)N4CCNCC4)cc3)n2)c1 [compound 352]
1 to 20 µM	1 to 20 µM	b (b means greater than 2)	a (a means 2 or less)	O=C(c1ccc(CN(CCOc2ccccc2)c2nc(-c3ccc(Cl)c(Cl)c3)cs2)cc1)N1CCNCC1 [compound 360]

Second part, the molecule before the results:

SMILES	IC50 [1]	IC50 [2]	Fold Induction of p53 activity, U20SRE [3]	Fold Induction of p53 activity, A549RE [4]
O=C(c1ccc(CN(Cc2cccc(OC(F)(F)F)c2)c2nc(-c3ccccc3)cs2)cc1)N1CCNCC1 [compound 275]	1 to 20 µM	1 to 20 µM	b (b means greater than 2)	a (a means 2 or less)
O=C(c1ccc(CN(Cc2cccc(OC(F)(F)F)c2)c2nc(-c3ccc4ccccc4c3)cs2)cc1)N1CCNCC1 [compound 282, 4-(2-naphthyl)-N-[4-(piperazin-1-ylcarbonyl)benzyl]-N-[3-(trifluoromethoxy)benzyl]-1,3-thiazol-2-amine]	1 to 20 µM	1 to 20 µM	b (b means greater than 2)	a (a means 2 or less)
COc1cccc(CN(Cc2ccc(C(=O)N3CCNCC3)cc2)c2nc(-c3ccc(Br)cc3)cs2)c1OC [compound 353]	1 to 20 µM	1 to 20 µM	a (a means 2 or less)	a (a means 2 or less)
